Patent US6362369B1, “Phthalic acid diamide derivatives fluorine-containing aniline compounds as starting material, agricultural and horticultural insecticides, and a method for application of the insecticides” (Nihon Nohyaku Co., Ltd., priority 1997, dated 2002)

Assays:
[1] = test system: diamondback moth (Plutella xylostella); assay: Insecticidal effect on diamondback moth (Test Example 1); type: in vivo; conditions: mortality judged according to the criterion shown in Test Example 1
Procedure, shortened: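 Oviposition by adults on Chinese cabbage seedling; immersion; air-dry; 25° C room. Count of hatched larvae at day 6 post-immersion → mortality → effect graded by criterion. Triplicate, 10 insects/group.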

[2] = test system: rice leafroller (Cnaphalocrocis medinalis); assay: Insecticidal effect on rice leafroller (Test Example 3); type: in vivo; conditions: 500 ppm, rice lamina dip, third-instar larvae, four days after inoculation, 25° C., humidity 70%
Procedure, shortened: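 Insecticidal effect is judged by a predefined criterion from dead/alive counts four days after infesting air-dried lamina with third-instar larvae, kept on moistened filter paper at 25° C, 70% humidity.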

| SMILES | Insecticidal effect on diamondback moth (Test Example 1), judged grade [1] | Insecticidal effect on rice leafroller (Test Example 3), judged grade [2] |
| --- | --- | --- |
| CCc1ccccc1NC(=O)c1cccc([N+](=O)[O-])c1C(=O)NC(C)C [compound 602] | A (100) | A (100) |
| CC(C)NC(=O)c1c(C(=O)Nc2ccccc2C(C)C)cccc1[N+](=O)[O-] [compound 603] | B (99-90) | C (89-80) |
| CC(C)NC(=O)c1c(C(=O)Nc2ccc(C(C)C)cc2)cccc1[N+](=O)[O-] [compound 604] | A (100) | D (79-50) |
| CC(C)NC(=O)c1c(C(=O)Nc2ccc(C(F)(F)C(F)(F)C(F)(F)C(F)(F)F)cc2)cccc1[N+](=O)[O-] [compound 611] | A (100) | A (100) |
| COc1ccccc1NC(=O)c1cccc([N+](=O)[O-])c1C(=O)NC(C)C [compound 612] | A (100) | D (79-50) |
| CC(C)NC(=O)c1c(C(=O)Nc2cccc(OC(F)F)c2)cccc1[N+](=O)[O-] [compound 616] | A (100) | D (79-50) |
| CC(C)NC(=O)c1c(C(=O)Nc2cccc(SC(F)(F)F)c2)cccc1[N+](=O)[O-] [compound 623] | A (100) | A (100) |
| CC(C)NC(=O)c1c(C(=O)Nc2cc(Cl)ccc2Cl)cccc1[N+](=O)[O-] [compound 634] | A (100) | D (79-50) |
| CC(C)NC(=O)c1c(C(=O)Nc2ccc(F)c(Cl)c2)cccc1[N+](=O)[O-] [compound 643] | A (100) | A (100) |
| Cc1cccc(NC(=O)c2cccc([N+](=O)[O-])c2C(=O)NC(C)C)c1C [compound 647] | A (100) | B (99-90) |
| Cc1ccc(C)c(NC(=O)c2cccc([N+](=O)[O-])c2C(=O)NC(C)C)c1 [compound 649] | A (100) | C (89-80) |
| Cc1ccc(NC(=O)c2cccc([N+](=O)[O-])c2C(=O)NC(C)C)c(Cl)c1 [compound 656] | A (100) | A (100) |
| CC(C)NC(=O)c1c(C(=O)Nc2ccc(C(F)(F)F)cc2Cl)cccc1[N+](=O)[O-] [compound 660] | A (100) | A (100) |
| CC(C)NC(=O)c1c(C(=O)Nc2cc(C(F)(F)F)ccc2Cl)cccc1[N+](=O)[O-] [compound 661] | B (99-90) | D (79-50) |
| Cc1cccc(Cl)c1NC(=O)c1cccc([N+](=O)[O-])c1C(=O)NC(C)C [compound 666] | A (100) | D (79-50) |
| Cc1ccc(NC(=O)c2cccc([N+](=O)[O-])c2C(=O)NC(C)C)c(C)c1Cl [compound 670] | A (100) | D (79-50) |
| Cc1cc(Br)ccc1NC(=O)c1cccc([N+](=O)[O-])c1C(=O)NC(C)C [compound 671] | A (100) | D (79-50) |
| CC(C)NC(=O)c1c(C(=O)Nc2ccc(Cl)cc2C(F)(F)F)cccc1[N+](=O)[O-] [compound 679] | A (100) | A (100) |
| Cc1cc(NC(=O)c2cccc([N+](=O)[O-])c2C(=O)NC(C)C)ccc1Br [compound 680] | A (100) | D (79-50) |
| Cc1cc(C(F)(F)F)ccc1NC(=O)c1cccc([N+](=O)[O-])c1C(=O)NC(C)C [compound 682] | A (100) | A (100) |
| COc1ccc(NC(=O)c2cccc([N+](=O)[O-])c2C(=O)NC(C)C)c(C)c1 [compound 688] | A (100) | A (100) |
| Cc1cc(OC(C)C)ccc1NC(=O)c1cccc([N+](=O)[O-])c1C(=O)NC(C)C [compound 690] | A (100) | A (100) |
